Publication PMC12296639, “Synthesis and Bioactivity Investigation of Novel 2-({2-[(Dialkylamino) Methyl] Quinazolin-4-one-3-yl} Methyl) Benzonitrile Derivatives as Dipeptidyl Peptidase-4 Inhibitory Agent” (Iranian Journal of Pharmaceutical Research : IJPR, 2025)

Biological target: T1, DPP-4 (Homo sapiens, UniProt P27487)
T1 construct: purchased MAK203
Experiment: in vitro DPP-4 inhibitory activity assay (DPP-4 inhibitor screening kit MAK203)
Format: biochemical
Details: fluorescence assay kit, 37°C; IC50 from linear equation of inhibition % vs concentration
Experimental: The in vitro DPP-4 inhibitory activity of the prepared compounds was evaluated using the DPP-4 inhibitor screening kit (MAK203) according to the test protocol with slight modifications ([17]). […] Substrate solutions (25 μL) were added to each well, covered, and incubated at 37°C for 30 minutes. […] The following formula was used to calculate the percent inhibition (Equation 1):
Inhibition %= (initial activity-inhibitor activity)/initial activity×100 %
The IC50 value was calculated from y = a + bx (linear equation) obtained from the relation of the inhibition activity (%) (y) and the concentration (x) of the substance being measured.

T1 sequence (P27487 whole entry): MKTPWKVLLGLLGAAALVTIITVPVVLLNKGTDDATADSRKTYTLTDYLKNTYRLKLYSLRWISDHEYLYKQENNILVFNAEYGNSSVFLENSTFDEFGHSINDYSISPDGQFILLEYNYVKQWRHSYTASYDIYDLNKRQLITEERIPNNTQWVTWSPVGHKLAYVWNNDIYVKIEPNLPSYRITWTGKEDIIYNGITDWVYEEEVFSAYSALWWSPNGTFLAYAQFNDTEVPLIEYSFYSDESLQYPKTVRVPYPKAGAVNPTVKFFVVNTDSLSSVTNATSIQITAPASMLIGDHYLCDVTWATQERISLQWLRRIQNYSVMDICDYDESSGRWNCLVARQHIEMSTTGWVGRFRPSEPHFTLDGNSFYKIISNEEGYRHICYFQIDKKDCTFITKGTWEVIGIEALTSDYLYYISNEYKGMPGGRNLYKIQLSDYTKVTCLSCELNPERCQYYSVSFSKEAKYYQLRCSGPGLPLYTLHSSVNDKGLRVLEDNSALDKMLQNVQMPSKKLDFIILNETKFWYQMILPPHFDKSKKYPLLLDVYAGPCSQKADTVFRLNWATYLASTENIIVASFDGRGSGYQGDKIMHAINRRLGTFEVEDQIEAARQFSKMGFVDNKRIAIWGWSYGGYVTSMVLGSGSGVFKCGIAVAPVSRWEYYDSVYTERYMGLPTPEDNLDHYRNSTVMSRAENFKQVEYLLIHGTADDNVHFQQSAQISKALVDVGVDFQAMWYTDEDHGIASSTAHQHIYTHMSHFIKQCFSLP

SMILES	IC50
CCCCN(CCCC)Cc1nc2ccccc2c(=O)n1Cc1ccccc1C#N [5c, 2-({2-[Dibutylaminomethyl]quinazolin-4-one-3-yl}methyl)benzonitrile]	6.78 µM
CN(C)Cc1nc2ccccc2c(=O)n1Cc1ccccc1C#N [5a, 2-({2-[Dimethylaminomethyl]quinazolin-4-one-3-yl}methyl)benzonitrile]	4.92 µM
N#Cc1ccccc1Cn1c(CN2CCCC2)nc2ccccc2c1=O [5e, 2-({2-[Pyrrolidinomethyl]quinazolin-4-one-3-yl}methyl)benzonitrile]	3.07 µM
N#Cc1ccccc1Cn1c(CN2CCOCC2)nc2ccccc2c1=O [5d, 2-({2-[Morpholinomethyl]quinazolin-4-one-3-yl}methyl)benzonitrile]	1.46 µM
CN1CCN(Cc2nc3ccccc3c(=O)n2Cc2ccccc2C#N)CC1 [5f, 2-({2-[N-methylpiperazinomethyl]quinazolin-4-one-3-yl}methyl)benzonitrile]	3.56 µM
CCN(CC)Cc1nc2ccccc2c(=O)n1Cc1ccccc1C#N [5b, 2-({2-[Diethylaminomethyl]quinazolin-4-one-3-yl}methyl)benzonitrile]	5.29 µM
